Laboratory results as given in patent US20240246941A1, “SUBSTITUTED 4-(3-AMINOPROP-1-YL)AMINOQUINOLINE ANALOGS AS MODULATORS OF MELANOMA-ASSOCIATED ANTIGEN 11 UBIQUITIN LIGASE” (ST. JUDE CHILDREN'S RESEARCH HOSPITAL, INC., priority 2020, published 2024).
Where two headings read alike, the source gives them in different places.

Target: interaction between GST-MAGEA11 MHD and FAM-PCF11_4 peptide (MAGE-A11:PCF11) (Homo sapiens (Human), UniProt P43364)
Test: TR-FRET dose response competition assay for disruption of MAGE-A11:PCF11 binding
Description: TR-FRET Assays and High-throughput Screen. Terbium-anti-GST antibody, 1 M Tris pH 7.5 1 M MgCl2 and 1 M DTT were purchased from Invitrogen (Carlsbad, CA), BSA was purchased from Sigma (St. Louis, MO). Dimethyl sulfoxide (DMSO) was purchased from Fisher Scientific (Pittsburgh, PA). Black 384-well low volume plates and 384-well polypropylene compound plates were purchased from Corning Incorporated (Tewksbury, MA). The St. Jude FDA drug and Bioactive library (11,293 chemicals), Drug-like library (10,073 chemicals) and Lead-like library (10,041 chemicals) were custom assembled and purchased from commercial sources including Sigma, Microsource (Gaylordsville, CT), selleckchem (Houston, TX), ChemDiv (San Diego, CA), ChemBridge (San Diego, CA), Enamine (Monmouth Jct., NJ), and Life Chemicals (Niagara-on-the-Lake, ON, Canada). They were arrayed (10 mM in DMSO) in 384-well polypropylene compound plates with columns 1, 2, 13 and 14 empty which were reserved for controls.
The TR-FRET assay buffer with a formula of 50 mM Tris pH 7.5, 20 mM MgCl2, 0.1 mg/ml BSA and 1 mM DTT was freshly prepared before each experiment. All TR-FRET assays were performed in black 384-well plates with 20 μl/well assay volume in the TR-FRET assay buffer at room temperature (approximately 25° C.). All peptides or compounds were solubilized in DMSO. To test the competitive activity of peptides or compounds against the interaction between GST-MAGEA11 MHD and FAM-PCF11_4 peptide, 10 μl/well peptide or compound at specified concentration was dispensed into a black 384-well low volume plate, followed by 5 μl/well FAM-PCF11_4 (800 nM), 5 μl/well Tb-anti-GST (20 nM) and GST-MAGEA11 MHD (20 nM). The assay components in each well was then mixed by shaking the plate on an IKA MTS 2/4 digital microtiter plate shaker (IKA Works; Wilmington, NC, USA) at 900 RPM for 1 minute. The plate was further centrifuged in an Eppendorf 5810 centrifuge with an A-4-62 swing-bucket rotor (Eppendorf AG, Hamburg, Germany) at 201 g (1000 rpm) for 30 seconds. The plate was then incubated for 90 min with a lid to avoid light exposure to the assay components. After incubation, the fluorescent emission signals at 520 nm and 490 nm channels of individual wells were measured with a PHERAstar FS plate reader (BMG Labtech; Durham, NC, USA) by using a 340 nm excitation filter, 100 μs delay time, and 200 μs integration time. The TR-FRET fluorescence emission ratio (TR-FRET signal) for each well was presented as 10 000×520 nm/490 nm, which was used directly for curve fitting, or further converted to % Inhibition based on the respective positive and negative controls. The graphic software GraphPad Prism 4.81 (GraphPad Software; La Jolla, CA, USA) was used to generate curves and derive IC50 values of tested peptides or compounds, if applicable.
TR-FRET inhibitory activity characterization of a panel of PCF11 peptides against the interaction between GST-MAGEA11 MHD and FAM-PCF11_4 was performed as follows. In a 20 μl/well assay volume, dilutions of PCF11_1 to PCF11_8 peptides (concentrations ranged from 3.1 nM to 100 μM for peptides PCF11_4, PCF11_5, PCF11_6 and PCF11_8 in a 1-to-2 dilution pattern for 16 concentration levels, and ranged from 48.9 nM to 100 μM for peptides of PCF11_1, PCF11_2, PCF11_3 and PCF11_7 in a 1-to-2 dilution pattern for 12 concentration levels), 200 nM FAM-PCF11_4, 5 nM Tb-anti-GST and 5 nM GST-MAGEA11 were mixed together and incubated for 90 min before the TR-FRET signal for each well was measured. The final DMSO concentration was 1.1% (v/v). […] The signal of each peptide-treated well (Signalpeptide) was normalized to the positive and negative controls to derive % inhibition of the peptide at a specific concentration with equation 1. Where applicable, the % Inhibition data were fit into a Sigmoidal dose response equation to derive IC50 values.
TR-FRET screen for identifying MAGEA11 small molecule inhibitors was performed as follows.

[1] = Dose response TR-FRET screening of nine scaffold groups against MAGE-A11:PCF11, read-out: consensus IC50

interaction between GST-MAGEA11 MHD and FAM-PCF11_4 peptide (MAGE-A11:PCF11), sequence (P43364 218-429): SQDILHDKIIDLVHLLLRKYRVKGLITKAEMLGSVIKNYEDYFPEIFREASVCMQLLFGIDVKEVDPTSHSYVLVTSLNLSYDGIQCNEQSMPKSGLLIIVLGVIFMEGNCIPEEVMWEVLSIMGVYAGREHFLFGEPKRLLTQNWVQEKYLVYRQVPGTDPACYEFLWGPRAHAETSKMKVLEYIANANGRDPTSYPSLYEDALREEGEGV

Row | SMILES | IC50 [1] | IC50 (Table 8, representative compounds, read-out: TR-FRET IC50)
1 | O=C(CNC(=O)c1ccc2[nH]c3ccccc3c2c1)NCCO [SJ000031064-1] | 69.9 µM | –
2 | O=C(NCCO)c1ccc2[nH]c3ccccc3c2c1 [SJ000031065-1] | 69.9 µM | –
3 | CCOC(=O)c1ccc(NC2=C(N)C(=O)c3ccccc3C2=O)cc1 [SJ000032711-1] | 69.9 µM | –
4 | NC1=C(Nc2ccc(I)cc2)C(=O)c2ccccc2C1=O [SJ000032712-1] | 69.9 µM | –
5 | NC1=C(Nc2ccc(Br)cc2)C(=O)c2ccccc2C1=O [SJ000032713-1] | 69.9 µM | –
6 | CCCCOc1ccc(N(C(C)=O)C2=C(Cl)C(=O)c3ccccc3C2=O)cc1 [SJ000032717-1] | 8.71 µM | –
7 | CCCCCOc1ccc(NC2=C(N)C(=O)c3ccccc3C2=O)cc1 [SJ000032723-1] | 69.9 µM | –
8 | CCCCCOc1ccc(N(C(C)=O)C2=C(Cl)C(=O)c3ccccc3C2=O)cc1 [SJ000032724-1] | 28.3 µM | –
9 | O=C1C(Cl)=C(N2CCN(S(=O)(=O)c3ccc(Br)cc3)CC2)C(=O)c2ccccc21 [SJ000033014-1] | 69.9 µM | –
10 | CC(=O)Nc1ccc(S(=O)(=O)N2CCN(C3=C(Cl)C(=O)c4ccccc4C3=O)CC2)cc1 [SJ000036320-1] | 69.9 µM | –
11 | COc1cccc(-c2nc(S(=O)(=O)c3ccc(C)cc3)c(N3CCOCC3)o2)c1 [SJ000038123-1] | 17.4 µM | –
12 | COc1cccc(-c2nc(S(=O)(=O)c3ccc(Cl)cc3)c(N3CCOCC3)o2)c1 [SJ000038124-1] | 7.43 µM | –
13 | O=C1C(Cl)=C(N2CCN(S(=O)(=O)c3ccc(F)cc3)CC2)C(=O)c2ccccc21 [SJ000038882-1] | 69.9 µM | –
14 | CCOc1ccc(-c2nc(C#N)c(N3CCOCC3)o2)cc1 [SJ000041896-1] | 69.9 µM | –
15 | CCOc1ccc(Nc2nc(N)c3ccccc3n2)cc1 [SJ000045621-1] | 69.9 µM | –
16 | Nc1nc(Nc2ccc(O)cc2)nc2ccccc12 [SJ000045622-1] | 69.9 µM | –
17 | CC(=O)N(C1=C(Cl)C(=O)c2ccccc2C1=O)c1cccc(O)c1 [SJ000046178-1] | 69.9 µM | –
18 | O=C1C(Cl)=C(Nc2cccc(Br)c2)C(=O)c2ccccc21 [SJ000048680-1] | 69.9 µM | –
19 | O=C1c2ccccc2NC(c2ccc([N+](=O)[O-])cc2)N1Cc1ccccc1 (stereo not shown) [SJ000051049-1] | 69.9 µM | –
20 | COc1ccc(-c2nc(C#N)c(N3CCOCC3)o2)cc1 [SJ000051527-1] | 69.9 µM | –
21 | CC(=O)NC1=C(N)C(=O)c2ccccc2C1=O [SJ000053101-1] | 69.9 µM | –
22 | O=C(NCC(O)CO)c1ccc2[nH]c3ccccc3c2c1 (stereo not shown) [SJ000053810-1] | 69.9 µM | –

Row | SMILES | IC50 [1] | IC50 (Table 8, representative compounds, read-out: TR-FRET IC50)
23 | OCCNCCNCc1ccc2[nH]c3ccccc3c2c1 [SJ000053962-1] | 69.9 µM | –
24 | CN(C)CCCNCc1ccc2[nH]c3ccccc3c2c1 [SJ000054243-1] | 69.9 µM | –
25 | CC(=O)NC1=C(Cl)C(=O)c2ccccc2C1=O [SJ000067071-3] | 69.9 µM | –
26 | COc1ccc(Nc2nc(N)c3ccccc3n2)cc1 [SJ000067204-1] | 69.9 µM | –
27 | COP(=O)(OC)c1nc(-c2ccc(C)cc2)oc1N1CCOCC1 [SJ000090156-1] | 69.9 µM | –
28 | COP(=O)(OC)c1nc(-c2ccc(Br)cc2)oc1N1CCOCC1 [SJ000090176-1] | 69.9 µM | –
29 | COP(=O)(OC)c1nc(-c2ccc(Cl)cc2)oc1N1CCOCC1 [SJ000090185-1] | 17.4 µM | –
30 | CCOP(=O)(OCC)c1nc(-c2ccc(Cl)cc2)oc1N1CCOCC1 [SJ000090230-1] | 69.9 µM | –
31 | COP(=O)(OC)c1nc(-c2ccc([N+](=O)[O-])cc2)oc1N1CCOCC1 [SJ000092444-1] | 69.9 µM | –
32 | CCOP(=O)(OCC)c1nc(-c2ccc([N+](=O)[O-])cc2)oc1N1CCOCC1 [SJ000092459-1] | 69.9 µM | –
33 | CN(C)c1ccc(NC2=C(Cl)C(=O)c3ccccc3C2=O)cc1 [SJ000109503-1] | 3.3 µM | –
34 | CCn1c2ccccc2c2cc(CN3CCN(Cc4c[nH]c5ccccc45)CC3)ccc21 [SJ000111264-1] | 69.9 µM | –
35 | COc1ccc(C2Nc3ccccc3C(=O)N2Cc2ccccc2)cc1CSc1ccccn1 (stereo not shown) [SJ000111312-2] | 69.9 µM | –
36 | CCn1c2ccccc2c2cc(CNCCc3ccccc3)ccc21 [SJ000111712-1] | 69.9 µM | –
37 | CCn1c2ccccc2c2cc(CN3CCN(Cc4cc(OC)ccc4O)CC3)ccc21 [SJ000111875-2] | 69.9 µM | –
38 | CCn1c2ccccc2c2cc(CNCc3ccc(OC)cc3)ccc21 [SJ000112430-1] | 69.9 µM | –
39 | CCn1c2ccccc2c2cc(CNCCc3ccc(Cl)cc3)ccc21 [SJ000112458-1] | 69.9 µM | –
40 | CCn1c2ccccc2c2cc(CNCCc3ccc4c(c3)OCO4)ccc21 [SJ000112461-1] | 69.9 µM | –
41 | CCn1c2ccccc2c2cc(CN3CCC(N4CCN(c5ccccc5)CC4)CC3)ccc21 [SJ000112860-1] | 69.9 µM | –
42 | COc1cc2nc(N3CCN(C(=O)C4COc5ccccc5O4)CC3)nc(N)c2cc1OC (stereo not shown) [SJ000113084-10] | 57.1 µM | –
43 | Cc1ccc(NC2=C(Cl)C(=O)c3ccccc3C2=O)cc1 [SJ000120750-1] | 69.9 µM | –
44 | COc1c2ccoc2nc2c(OC)c(OCC(O)C(C)O)ccc12 (stereo not shown) [SJ000121402] | – | > 69.9 µM

Row | SMILES | IC50 [1] | IC50 (Table 8, representative compounds, read-out: TR-FRET IC50)
45 | CCOc1ccc(NC2=C(Cl)C(=O)c3ccccc3C2=O)cc1 [SJ000122936-1] | 69.9 µM | –
46 | CN(C)CCCNC(=O)c1ccc2[nH]c3ccccc3c2c1 [SJ000123281-1] | 69.9 µM | –
47 | COP(=O)(OC)c1nc(-c2ccccc2)oc1N1CCOCC1 [SJ000124835-1] | 69.9 µM | –
48 | CCOC(=O)COc1ccc(-c2nc3c(=O)n(C)c(=O)n(C)c3[nH]2)cc1OC [SJ000140137-1] | 69.9 µM | –
49 | Cc1ccc(-c2nc(S(=O)(=O)c3ccc(Cl)cc3)c(N3CCOCC3)o2)cc1 [SJ000140851-1] | 69.9 µM | –
50 | CCCNC1=C(Cl)C(=O)c2ccccc2C1=O [SJ000141460-3] | 69.9 µM | –
51 | CNC1=C(Cl)C(=O)c2ccccc2C1=O [SJ000141461-1] | 69.9 µM | –
52 | O=S(=O)(c1ccc(Cl)cc1)c1nc(-c2ccccc2Cl)oc1N1CCOCC1 [SJ000141574-1] | 69.9 µM | –
53 | CCN1CCN(Cc2ccc3c(c2)c2ccccc2n3CC)CC1 [SJ000142875-1] | 69.9 µM | –
54 | CCn1c2ccccc2c2cc(CN3CCN(C)CC3)ccc21 [SJ000142908-1] | 69.9 µM | –
55 | CCn1c2ccccc2c2cc(CN3CCN(CCO)CC3)ccc21 [SJ000145592-1] | 69.9 µM | –
56 | CCOC(=O)N1CCN(Cc2ccc3c(c2)c2ccccc2n3CC)CC1 [SJ000147352-1] | 29.5 µM | –
57 | CCC(CO)NC1=C(Cl)C(=O)c2ccccc2C1=O (stereo not shown) [SJ000148678-1] | 69.9 µM | –
58 | CCC(COC(C)=O)NC1=C(Cl)C(=O)c2ccccc2C1=O (stereo not shown) [SJ000149466-1] | 17.2 µM | –
59 | CCNC1=C(Cl)C(=O)c2ccccc2C1=O [SJ000157082-1] | 69.9 µM | –
60 | Cc1ccc(-c2nc(S(=O)(=O)c3ccccc3)c(N3CCOCC3)o2)cc1 [SJ000159484-1] | 69.9 µM | –
61 | CCCS(=O)(=O)N1CCN(Cc2ccc3c(c2)c2ccccc2n3CC)CC1 [SJ000167951-1] | 19.2 µM | –
62 | CCn1c2ccccc2c2cc(CN3CCN(S(C)(=O)=O)CC3)ccc21 [SJ000168261-1] | 69.9 µM | –
63 | CCn1c2ccccc2c2cc(CN3CCN(S(=O)(=O)CC)CC3)ccc21 [SJ000168321-1] | 69.9 µM | –
64 | O=S(=O)(c1ccc(Cl)cc1)c1nc(-c2ccccc2Br)oc1N1CCOCC1 [SJ000184129-1] | 69.9 µM | –
